# From patent publication US20200121684A1, “MODULATORS OF BTK PROTEOLYSIS AND METHODS OF USE” (Yale University, priority 2018, published 2020)
# Where a name gives a salt, the structure may show the parent alone. Read-outs that look alike come from different tables or passages of the source.
# How the values were obtained:
# BTK = target: T1, BTK (Homo sapiens, UniProt Q06187); experiment: BTK degradation in NAMALWA cells, immunoblot; type: cell-based
# T1 construct: host or cells: NAMALWA
# [1] = Pharmacokinetics after IV compound administration in mice; type: in vivo; settings: for pharmacokinetic profile relative to COMPOUND 102: IV mice; for Clearance (Cl) / Half Life (t1/2) / Cmax / AUC(0-t): IV mice (1 mg/Kg); for Cmax: Tmax 0.033 h; for AUC(0-t): mouse, in vivo, read-out: Exposure (AUClast)
# HER3 = target: T2, HER3 (Homo sapiens, UniProt P21860); experiment: HER3 (ERBB3) degradation, immunoblot; type: cell-based; settings: Table 5
# T2 construct: endogenous in cells
# C481S BTK = C481S BTK (Homo sapiens, UniProt Q06187, C481S); experiment: In vitro kinase inhibition, recombinant BTK, 10-point dose response, 10 μM ATP
# C481S BTK, sequence (Q06187 whole entry C481S): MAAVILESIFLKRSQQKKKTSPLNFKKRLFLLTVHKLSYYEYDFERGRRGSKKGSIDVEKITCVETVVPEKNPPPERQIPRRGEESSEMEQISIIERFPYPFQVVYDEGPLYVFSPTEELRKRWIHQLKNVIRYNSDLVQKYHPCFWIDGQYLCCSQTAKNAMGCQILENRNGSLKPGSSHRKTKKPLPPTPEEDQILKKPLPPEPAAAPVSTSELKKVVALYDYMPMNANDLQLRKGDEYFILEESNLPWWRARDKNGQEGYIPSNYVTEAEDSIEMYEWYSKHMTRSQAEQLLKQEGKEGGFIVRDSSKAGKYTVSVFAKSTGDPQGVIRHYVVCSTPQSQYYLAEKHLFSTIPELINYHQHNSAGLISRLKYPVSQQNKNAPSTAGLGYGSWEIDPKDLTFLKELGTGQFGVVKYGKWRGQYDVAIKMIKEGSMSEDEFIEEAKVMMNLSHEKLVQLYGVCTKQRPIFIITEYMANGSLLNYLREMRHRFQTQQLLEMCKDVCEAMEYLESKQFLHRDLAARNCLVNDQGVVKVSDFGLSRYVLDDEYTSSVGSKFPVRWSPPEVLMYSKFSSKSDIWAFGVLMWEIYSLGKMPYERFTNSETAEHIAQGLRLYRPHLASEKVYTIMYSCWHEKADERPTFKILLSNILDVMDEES
# T1 sequence (Q06187 whole entry): as the sequence (Q06187 whole entry C481S) above, with S481C counted along it
# T2 sequence (P21860 20-1342): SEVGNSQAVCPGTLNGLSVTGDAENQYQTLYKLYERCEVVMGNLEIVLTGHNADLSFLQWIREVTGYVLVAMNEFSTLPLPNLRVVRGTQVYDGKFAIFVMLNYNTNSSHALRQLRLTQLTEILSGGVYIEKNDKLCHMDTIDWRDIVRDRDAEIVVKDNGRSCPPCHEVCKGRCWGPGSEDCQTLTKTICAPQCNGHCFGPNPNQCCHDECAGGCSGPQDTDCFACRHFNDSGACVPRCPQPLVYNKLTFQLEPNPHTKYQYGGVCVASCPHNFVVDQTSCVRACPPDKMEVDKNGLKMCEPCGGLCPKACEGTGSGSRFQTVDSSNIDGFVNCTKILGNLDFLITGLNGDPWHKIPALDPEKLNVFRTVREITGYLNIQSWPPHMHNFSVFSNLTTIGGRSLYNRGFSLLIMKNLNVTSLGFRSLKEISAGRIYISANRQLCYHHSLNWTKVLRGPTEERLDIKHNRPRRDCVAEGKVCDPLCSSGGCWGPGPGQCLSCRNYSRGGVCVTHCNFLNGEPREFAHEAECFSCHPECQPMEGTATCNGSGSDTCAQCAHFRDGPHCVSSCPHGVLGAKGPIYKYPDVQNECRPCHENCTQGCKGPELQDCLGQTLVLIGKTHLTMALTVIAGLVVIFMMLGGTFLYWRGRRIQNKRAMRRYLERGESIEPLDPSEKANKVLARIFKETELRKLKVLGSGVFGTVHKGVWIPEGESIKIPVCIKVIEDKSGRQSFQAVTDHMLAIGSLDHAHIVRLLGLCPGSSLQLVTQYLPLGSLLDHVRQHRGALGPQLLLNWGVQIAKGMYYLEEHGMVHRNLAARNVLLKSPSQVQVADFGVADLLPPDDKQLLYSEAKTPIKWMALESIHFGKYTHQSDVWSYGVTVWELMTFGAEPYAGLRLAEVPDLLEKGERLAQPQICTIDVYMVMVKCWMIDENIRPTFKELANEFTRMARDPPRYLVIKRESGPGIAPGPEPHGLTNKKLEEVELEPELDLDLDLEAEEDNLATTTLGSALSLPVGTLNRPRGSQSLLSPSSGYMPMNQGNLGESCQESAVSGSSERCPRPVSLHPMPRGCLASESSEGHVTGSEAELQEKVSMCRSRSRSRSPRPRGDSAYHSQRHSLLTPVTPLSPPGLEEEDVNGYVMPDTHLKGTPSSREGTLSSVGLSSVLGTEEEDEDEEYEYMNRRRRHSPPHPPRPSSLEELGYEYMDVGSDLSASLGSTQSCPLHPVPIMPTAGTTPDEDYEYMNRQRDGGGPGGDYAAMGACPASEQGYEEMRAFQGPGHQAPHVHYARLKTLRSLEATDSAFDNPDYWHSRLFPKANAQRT
molecule,measurement,setting,value
"Nc1ncnc2c1c(-c1ccc(Oc3ccccc3)cc1)nn2C1CCN(CCOCCOCCOc2ccc3c(c2)C(=O)N(C2CCC(=O)NC2=O)C3=O)CC1 (stereo not shown) [COMPOUND 131, 5-(2-(2-(2-(4-(4-amino-3-(4-phenoxyphenyl)-1H-pyrazolo[3,4-d]pyrimidin-1-yl)piperidin-1-yl)ethoxy)ethoxy)ethoxy)-2-(2,6-dioxopiperidin-3-yl)isoindoline-1,3-dione]",degradation potency/profile compared with COMPOUND 102,BTK; NAMALWA cells,similarly potent degradation profile as COMPOUND 102
same,DC50,"BTK; Table 5, NAMALWA cells",11 nM
same,DC50,"BTK; Table 6, in NAMALWA cells line",11 nM
same,Dmax,"BTK; Table 6, in NAMALWA cells line, read-out: Dmax",> 99%
same,pharmacokinetic profile relative to COMPOUND 102,[1],superior pharmacokinetic profiles relative to COMPOUND 102
same,Clearance (Cl),[1],102 mL/min/kg
same,Half Life (t1/2),[1],1.62 h
same,Cmax,[1],831 ng/mL
same,AUC(0-t),[1],166 ng·h/mL
"Nc1ncnc2c1c(-c1ccc(Oc3ccccc3)cc1)nn2C1CCN(CCOCCOCCOc2ccc3c(c2)CN(C2CCC(=O)NC2=O)C3=O)CC1 (stereo not shown) [COMPOUND 135, 3-(5-(2-(2-(2-(4-(4-amino-3-(4-phenoxyphenyl)-1H-pyrazolo[3,4-d]pyrimidin-1-yl)piperidin-1-yl)ethoxy)ethoxy)ethoxy)-1-oxoisoindolin-2-yl)piperidine-2,6-dione]",degradation potency/profile compared with COMPOUND 102,BTK; NAMALWA cells,similarly potent to COMPOUND 102
same,Dmax,"BTK; NAMALWA cells, read-out: Dmax",> 99%
same,DC50,"BTK; Table 5, NAMALWA cells",8 nM
same,DC50,"BTK; Table 6, in NAMALWA cells line",8 nM
same,Dmax,"BTK; Table 6, in NAMALWA cells line",>99%
same,pharmacokinetic profile relative to COMPOUND 102,[1],superior pharmacokinetic profiles relative to COMPOUND 102
same,Clearance (Cl),[1],40.8 mL/min/kg
same,Half Life (t1/2),[1],1.64 h
same,Cmax,[1],2100 ng/mL
same,AUC(0-t),[1],405 ng·h/mL
"Nc1ncnc2c1c(-c1ccc(Oc3ccccc3)cc1)nn2C1CCN(CCCOCCCOCCC(=O)Nc2cccc3c2C(=O)N(C2CCC(=O)NC2=O)C3=O)CC1 (stereo not shown) [Compound 103, 3-(3-(3-(4-(4-amino-3-(4-phenoxyphenyl)-1H-pyrazolo[3,4-d]pyrimidin-1-yl)piperidin-1-yl)propoxy)propoxy)-N-(2-(2,6-dioxopiperidin-3-yl)-1,3-dioxoisoindolin-4-yl)propanamide]",HER3 Degradation,HER3,No
"Nc1ncnc2c1c(-c1ccc(Oc3ccccc3)cc1)nn2C1CCN(CCCCCCOCCOCC(=O)Nc2cccc3c2C(=O)N(C2CCC(=O)NC2=O)C3=O)CC1 (stereo not shown) [Compound 104, 2-(2-(6-(4-(4-amino-3-(4-phenoxyphenyl)-1H-pyrazolo[3,4-d]pyrimidin-1-yl)piperidin-1-yl)hexyloxy)ethoxy)-N-(2-(2,6-dioxopiperidin-3-yl)-1,3-dioxoisoindolin-4-yl)acetamide]",BTK degradation at 1.0 μM,BTK; NAMALWA cells,nearly complete degradation of BTK
same,HER3 Degradation,HER3,No
"Nc1ncnc2c1c(-c1ccc(Oc3ccccc3)cc1)nn2C1CCN(CCCCOCCCCOCC(=O)Nc2ccc3c(c2)C(=O)N(C2CCC(=O)NC2=O)C3=O)CC1 (stereo not shown) [Compound 105, 2-[4-[4-[4-[4-amino-3-(4-phenoxyphenyl)pyrazolo[3,4-d]pyrimidin-1-yl]-1-piperidyl]butoxy]butoxy]-N-[2-(2,6-dioxo-3-piperidyl)-1,3-dioxo-isoindolin-5-yl]acetamide]",HER3 Degradation,HER3,No
"Nc1ncnc2c1c(-c1ccc(Oc3ccccc3)cc1)nn2C1CCN(CCCCOCCCCOCC(=O)Nc2cccc3c2C(=O)N(C2CCC(=O)NC2=O)C3=O)CC1 (stereo not shown) [Compound 106, 2-[4-[4-[4-[4-amino-3-(4-phenoxyphenyl)pyrazolo[3,4-d]pyrimidin-1-yl]-1-piperidyl]butoxy]butoxy]-N-[2-(2,6-dioxo-3-piperidyl)-1,3-dioxo-isoindolin-4-yl]acetamide]",BTK degradation at 1.0 μM,BTK; NAMALWA cells,nearly complete degradation of BTK
same,HER3 Degradation,HER3,No
"Nc1ncnc2c1c(-c1ccc(Oc3ccccc3)cc1)nn2C1CCN(CCCCCCOCCCCCCOCC(=O)Nc2cccc3c2C(=O)N(C2CCC(=O)NC2=O)C3=O)CC1 (stereo not shown) [Compound 107, 2-(6-(6-(4-(4-amino-3-(4-phenoxyphenyl)-1H-pyrazolo[3,4-d]pyrimidin-1-yl)piperidin-1-yl)hexyloxy)hexyloxy)-N-(2-(2,6-dioxopiperidin-3-yl)-1,3-dioxoisoindolin-4-yl)acetamide]",HER3 Degradation,HER3,No
"Cc1ncsc1-c1ccc(CNC(=O)[C@@H]2C[C@@H](O)CN2C(=O)[C@@H](NC(=O)COCCOCCOCCOCCN2CCC(n3nc(-c4ccc(Oc5ccccc5)cc4)c4c(N)ncnc43)CC2)C(C)(C)C)cc1 [Compound 109, (2S,4R)-1-((S)-17-(4-(4-amino-3-(4-phenoxyphenyl)-1H-pyrazolo[3,4-d]pyrimidin-1-yl)piperidin-1-yl)-2-tert-butyl-4-oxo-6,9,12,15-tetraoxa-3-azaheptadecane)-4-hydroxy-N-(4-(4-methylthiazol-5-yl)benzyl)pyrrolidine-2-carboxamide]",HER3 Degradation,HER3,No
"Cc1ncsc1-c1ccc(CNC(=O)[C@@H]2C[C@@H](O)CN2C(=O)[C@@H](NC(=O)COCCCCCOCCCCCCN2CCC(n3nc(-c4ccc(Oc5ccccc5)cc4)c4c(N)ncnc43)CC2)C(C)(C)C)cc1 [Compound 111, (2S,4R)-1-((S)-2-(2-(5-(6-(4-(4-amino-3-(4-phenoxyphenyl)-1H-pyrazolo[3,4-d]pyrimidin-1-yl)piperidin-1-yl)hexyloxy)pentyloxy)acetamido)-3,3-dimethylbutanoyl)-4-hydroxy-N-(4-(4-methylthiazol-5-yl)benzyl)pyrrolidine-2-carboxainide]",HER3 Degradation,HER3,No
"Cc1ncsc1-c1ccc(CNC(=O)[C@@H]2C[C@@H](O)CN2C(=O)[C@@H](NC(=O)COCCOCCOCCOCCCCN2CCC(n3nc(-c4ccc(Oc5ccccc5)cc4)c4c(N)ncnc43)CC2)C(C)(C)C)cc1 [Compound 113, (2S,4R)-1-((S)-19-(4-(4-amino-3-(4-phenoxyphenyl)-1H-pyrazolo[3,4-d]pyrimidin-1-yl)piperidin-1-yl)-2-tert-butyl-4-oxo-6,9,12,15-tetraoxa-3-azanonadecane)-4-hydroxy-N-(4-(4-methylthiazol-5-yl)benzyl)pyrrolidine-2-carboxamide]",HER3 Degradation,HER3,No
"Cc1ncsc1-c1ccc(CNC(=O)[C@@H]2C[C@@H](O)CN2C(=O)[C@@H](NC(=O)COCCOCCOCCOCCN2CCN(C3CCC(n4nc(-c5ccc(Oc6ccccc6)cc5)c5c(N)ncnc54)CC3)CC2)C(C)(C)C)cc1 (stereo partly drawn) [Compound 114, (2S,4R)-1-((S)-17-(4-(4-(4-amino-3-(4-phenoxyphenyl)-1H-pyrazolo[3,4-d]pyrimidin-1-yl)cyclohexyl)piperazin-1-yl)-2-tert-butyl-4-oxo-6,9,12,15-tetraoxa-3-azaheptadecane)-4-hydroxy-N-(4-(4-methylthiazol-5-yl)benzyl)pyrrolidine-2-carboxamide]",HER3 Degradation,HER3,No
"Cc1ncsc1-c1ccc(CNC(=O)[C@@H]2C[C@@H](O)CN2C(=O)[C@@H](NC(=O)COCCOCCOCCOCCCCCCN2CCC(n3nc(-c4ccc(Oc5ccccc5)cc4)c4c(N)ncnc43)CC2)C(C)(C)C)cc1 [Compound 115, (2S,4R)-1-((S)-22-(4-(4-amino-3-(4-phenoxyphenyl)-1H-pyrazolo[3,4-d]pyrimidin-1-yl)piperidin-1-yl)-2,2-dimethyl-5-oxo-7,10,13,16-tetraoxa-4-azadocosanecarbonyl)-4-hydroxy-N-(4-(4-methylthiazol-5-yl)benzyl)pyrrolidine-2-carboxamide]",HER3 Degradation,HER3,No
"Nc1ncnc2c1c(-c1ccc(Oc3ccccc3)cc1)nn2C1CCNCC1 [compound 1, 3-(4-phenoxyphenyl)-1-(piperidin-4-yl)-1H-pyrazolo[3,4-d]pyrimidin-4-amine hydrochloride, reference compound]",inhibition potency against C481S mutant BTK relative to wild-type,C481S BTK,retained inhibition potency
"(2S,4R)-1-((S)-25-(4-(4-amino-3-(4-phenoxyphenyl)-1H-pyrazolo[3,4-d]pyrimidin-1-yl)piperidin-1-yl)-2,2-dimethyl-5-oxo-7,10,13,16,19-pentaoxa-4-azapentacosanecarbonyl)-4-hydroxy-N-(4-(4-methylthiazol-5-yl)benzyl)pyrrolidine-2-carboxamide [Compound 118]",DC50,"BTK; Table 5, NAMALWA cells",231 nM
same,HER3 Degradation,HER3,No
